Reference: PMC5603853, “Physicochemical, Stress Degradation Evaluation and Pharmacokinetic Study of AZGH102, a New Synthesized COX2 Inhibitors after I.V. and Oral Administration in Male and Female Rats” (Iranian Journal of Pharmaceutical Research : IJPR, 2017)
Values after ≈ are worked out from the molar mass of the structure shown. Where two headings read alike, the source gives them in different places.

Key:
[1] = Aqueous solubility (OECD Guideline No. 105); assay type: physicochemical; conditions: thermodynamic from solid; water; 3 replications
Procedure: (§1) Melting point was determined with an Electrothermal 9200 apparatus (UK). Moreover, aqueous solubility and octanol/water partition coefficient of the synthesized derivative was determined according to Organisation for Economic Co-operation and Development (OECD) Guideline for Testing of Chemicals, No.105 and No. 107, respectively ([6]-[8]).

[2] = Octanol/water partition coefficient (OECD Guideline No. 107); assay type: physicochemical; conditions: 3 replications, read-out: log P (logarithm of octanol/water partition coefficient)
Procedure: as §1

[3] = Forced degradation stability study (ICH guideline); assay type: physicochemical; parameters: Forced tests results, Mean ±SD: unit not given here; conditions: for Forced tests results, Mean ±SD: n=3
Procedure: The stability study was conducted according to forced degradation protocol ICH guideline for new drug substance ([9]-[11]). The study evaluated the stability of AZGH 102 at acidic, basic, and neutral medium. Moreover, the effect of oxidative condition (H2O2, 3 and 30%), thermal degradation at solid state and photolysis on the stability of AZGH 102 was evaluated.

[4] = Pharmacokinetic study after oral administration; assay type: in vivo; conditions: for Cl / Ka / Vd / α (distribution rate constant) / AUC(0-inf) / Cmax / Tmax / half-life / k el: oral 20 mg/Kg; for bioavailability / AUC(0-inf) / Cmax / Tmax / half-life / k el: rat, plasma; for bioavailability: oral 20 mg/Kg vs IV 10 mg/Kg, read-out: F (absolute bioavailability); for half-life: read-out: t1/2 β (converted); for k el: read-out: β (elimination rate constant) (converted)
Procedure: (§2) Male and female Wistar rats weighting 250 ± 10 g were used. They were housed in animal center of author’s institute. Each rat was housed in a cage which was kept at 25 ± 1 °C temperature and controlled humidity with 12 h light/dark cycle. Animals were fasted overnight before the experiment and had free access to water. The study protocol was approved by the local ethics committee for animal experiments of Shahid Beheshti University of Medical Sciences (Tehran, Iran).
(§3) The rats (12 male and 12 female) were randomly divided into four groups (6 rats/group) and assigned to receive AZGH 102 solution via intravenous (IV) and/or oral administration. The administered doses in both male and female groups for IV and oral studies were 10 mg/Kg and 20 mg/Kg, respectively. Blood samples were collected from the tail vein immediately prior to (blank sample) and at 0.08, 0.25, 0.5, 1, 2, 4, 6, 8, 10, 21 and 22 h after drug administration into heparinized micro-tubes. Blood samples were centrifuged at 1000 g for 10 min and the separated plasma samples were kept at – 20 °C until analysis.
(§4) Two-compartmental model was selected and pharmacokinetic analyses were performed using WinNonlin software (Pharsight Corporation, Mountain View, USA, Version 3.2). The following pharmacokinetic parameters were estimated: terminal elimination half-life (t1/2), area under the plasma concentration versus time curve from zero to the infinity (AUC 0-∞), distribution and elimination rate constants (α, β), y intercepts (A, B), volume of distribution (Vd), and total body clearance (CL). The peak plasma concentration (Cmax) and the time to reach Cmax (Tmax) for oral dose were obtained directly from the observed individual plasma concentration-time data.

[5] = Pharmacokinetic study after intravenous administration; assay type: in vivo; conditions: intravenous 10 mg/Kg; for AUC(0-inf) / C0 / Vd / clearance / half-life / k el: rat, plasma; for half-life: read-out: t1/2 β (converted); for k el: read-out: β (elimination rate constant) (converted)
Procedure: as §2, §3, §4

COX-2 = conditions: in comparison with celecoxib; cited from earlier work

## CS(=O)(=O)c1ccc(-c2cc(C(=O)O)c3cccc(C(=O)c4ccccc4)c3n2)cc1 [AZGH 102, 8-benzoyl-2-(4-(methylsulfonyl)phenyl)quinoline-4-carboxylic acid]
[1]
  solubility: 2.7 ± 0.09 µg/mL (≈ 6.26 µM)
[2]
  logP: 3.75 ± 0.001
[3]; Hydrolysis (Acid), fraction recovered intact
  Forced tests results, Mean ±SD: 0.94±0.02
[3]; Hydrolysis (Base)
  Forced tests results, Mean ±SD: 0.92±0.01
[3]; Hydrolysis (Buffer pH=7)
  Forced tests results, Mean ±SD: 0.95±0.04
[3]; Oxidative stress (H2O2-3%)
  Forced tests results, Mean ±SD: 0.94±0.02
[3]; Oxidative stress (H2O2-30%)
  Forced tests results, Mean ±SD: 0.90±0.04
[3]; Photodegradation (Acid)
  Forced tests results, Mean ±SD: 0.93±0.02
[3]; Photodegradation (Base)
  Forced tests results, Mean ±SD: 0.96±0.04
[3]; Photodegradation (Buffer pH=7)
  Forced tests results, Mean ±SD: 0.93±0.02
[3]; Thermal Degradation (solid phase)
  Forced tests results, Mean ±SD: 0.95±0.03
[3]; in all of the examined stress conditions
  recovered intact: more than 90%
[4]; female Wistar rats
  Cl: 29.15 ± 0.47 mL/h
  Ka: 1.26 ± 0.34 h⁻¹
  Vd: 156.27 ± 4.54 mL
  α (distribution rate constant): 3.70 ± 1.56 h⁻¹
  bioavailability: 25.6 ± 0.4%
  AUC(0-inf): 43900 ± 710 ng·h/mL
  Cmax: 16.5 ± 1.05 µg/mL
  Tmax: 0.5 h
  half-life: 3.72 ± 0.1 h
  k el: 5.28e-05 s⁻¹
[4]; male Wistar rats
  Cl: 27.47 ± 1.81 mL/h
  Ka: 0.69 ± 0.15 h⁻¹
  Vd: 147.04 ± 9.43 mL
  α (distribution rate constant): 5.79 ± 2.33 h⁻¹
  bioavailability: 27 ± 1.85%
  AUC(0-inf): 49300 ± 3380 ng·h/mL
  Cmax: 19.6 ± 1.96 µg/mL
  Tmax: 0.5 h
  half-life: 3.71 ± 0.16 h
  k el: 5.28e-05 s⁻¹
[5]; female Wistar rats
  α (distribution rate constant): 3.87 ± 1.11 h⁻¹
  AUC(0-inf): 85800 ± 9230 ng·h/mL
  C0: 100 ± 14.1 µg/mL
  Vd: 0.101 ± 0.0137 L
  clearance: 0.491 mL/min
  half-life: 2.38 ± 0.12 h
  k el: 0.00015 s⁻¹
[5]; male Wistar rats
  α (distribution rate constant): 2.98 ± 0.67 h⁻¹
  AUC(0-inf): 91300 ± 17100 ng·h/mL
  C0: 113 ± 7.99 µg/mL
  Vd: 0.0997 ± 0.0152 L
  clearance: 0.47 mL/min
  half-life: 2.23 ± 0.74 h
  k el: 8.06e-05 s⁻¹
COX-2
  selectivity index (COX-1/COX-2 inhibitory potency): improved selectivity index
